Assay results from patent US20080057129A1, “Drug microparticles” (priority 2006, published 2008).

How the values were obtained:
[1] = Solubility of drug in menthol melt; type: physicochemical; conditions: for Solubility: in menthol melt
Experimental: Menthol (10 grams) was melted on a stirring hot plate with magnetic stirring, then heated to the desired temperature indicated in Table 1. The desired drug was added in small increments (approximately 0.1 grams) and stirred to obtain a clear solution. The desired drug was added in increments until no more drug dissolved in the menthol.
Menthol (10 grams) was melted on a stirring hot plate with magnetic stirring, then heated to the desired temperature indicated in Table 1. The Azithromycin was added in small increments (0.1 grams) and stirred to obtain a clear solution. The drug was added in increments until no more drug dissolved in the menthol.

[2] = test system: antimicrobial peptide gene expression; conditions: Wang et al., J. Immunol. 2004; cited from earlier work

Work on `CC[C@H]1OC(=O)[C@H](C)[C@@H](O[C@H]2C[C@@](C)(OC)[C@@H](O)[C@H](C)O2)[C@H](C)[C@@H](O[C@@H]2O[C@H](C)C[C@H](N(C)C)[C@H]2O)[C@](C)(O)C[C@@H](C)CN(C)[C@H](C)[C@@H](O)[C@]1(C)O` [Azithromycin] yielded a Solubility ([1]; 63 °C) of 40.0 % w/w.

For `CC(=O)O[C@@]12CO[C@@H]1C[C@H](O)[C@@]1(C)C(=O)[C@H](O)C3=C(C)[C@@H](OC(=O)[C@H](O)[C@@H](NC(=O)OC(C)(C)C)c4ccccc4)C[C@@](O)([C@@H](OC(=O)c4ccccc4)[C@H]21)C3(C)C` [Docetaxel], the “solubility in the menthol melt” value ([1]; without the additives PEG 6000 and Poloxamer 407) was “soluble”.

Work on `CCC(C)n1ncn(-c2ccc(N3CCN(c4ccc(OCC5COC(Cn6cncn6)(c6ccc(Cl)cc6Cl)O5)cc4)CC3)cc2)c1=O` (stereo not drawn) [Itraconazole] yielded a solubility in menthol ([1]; 60° C.) of 1% and a Solubility ([1]; 61 °C) of 1.0 % w/w.

`O=C(O)c1ccccc1O` [Salicylic acid] gave a Solubility ([1]; 43 °C) of 16.0 % w/w.

In the case of `C=C1/C(=C\C=C2/CCC[C@]3(C)[C@@H]([C@H](C)CCCC(C)(C)O)CC[C@@H]23)C[C@@H](O)C[C@@H]1O` [calcitriol, 1,25-dihydroxyvitamin D3], the “induction of antimicrobial peptide gene expression” value [2] is listed as “inducer of the antimicrobial peptide gene expression”.
